Among the data in patent US8629102B2, “3-hydroxyisothiazole 1-oxide derivatives” (Mochida Pharmaceutical Co., Ltd., priority 2011, dated 2014) are EC50 values, retold here.

In general, EC50 refers to the concentration giving half of the maximal effect.

This assay addresses T1, GPR40 of human origin (Homo sapiens, UniProt O14842).
T1 construct: expressed in transfected cells
As to the kind of experiment: Agonist action on GPR40 of human origin (intracellular Ca2+ change). As to conditions: CHO cell strain stably expressing GPR40 of human origin; change in Ca2+ concentration, fluorescent calcium indicator. The format is cell-based. As to the method:
Pharmacological Test Example 1: Agonist Action on GPR40 of Human Origin
A CHO cell strain stably expressing GPR40 of human origin was used to determine the agonist action of a subject compound. This cell strain was seeded in a clear bottom 96 well plate at 4×10^4 cells/100 pt/well. The cell strain iswas cultured in a CO2 incubator overnight using a Ham's F-12 medium containing a 10% fetal bovine serum, 100 U/mL penicillin, 0.1 mg/mL streptomycin, and 400 μg/mL Geneticin. Calcium 4 Assay Kit (Molecular Devices) was used as a fluorescent calcium indicator. One mL of 77 mg/mL probenecid (Invitrogen) was added to 100 mL of a calcium indicator solution to prepare a solution (loading solution) mixed with a 20 mM HEPES-containing Hanks' balanced salt solution (HBSS) in equal proportions. To the cells from which the culture solution is removed, 200 μl of the loading solution was added, and the cells were cultured in a CO2 incubator for 1 hour. The subject compound was diluted with a 20 mM HEPES-containing HBSS and was added to the cells by 50 μL, and the change in the Ca^2+ concentration was measured with an intracellular ion analyzer. The EC50 value of the subject compound was calculated using the dose-response curve of fluorescence intensity variation.

T1 sequence (O14842 whole entry): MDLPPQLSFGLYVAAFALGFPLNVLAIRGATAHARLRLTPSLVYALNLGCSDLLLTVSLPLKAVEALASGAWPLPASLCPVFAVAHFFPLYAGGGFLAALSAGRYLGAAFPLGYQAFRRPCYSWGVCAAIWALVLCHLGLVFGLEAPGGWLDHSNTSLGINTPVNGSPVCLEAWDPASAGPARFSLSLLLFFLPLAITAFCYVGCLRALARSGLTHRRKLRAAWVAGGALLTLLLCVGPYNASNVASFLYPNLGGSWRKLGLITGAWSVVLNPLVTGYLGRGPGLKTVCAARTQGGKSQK

Regarding `[O-][s+]1nc(O)cc1-c1ccc(O[C@@H]2CCc3c(-c4ccccc4F)cccc32)cc1` (stereo partly drawn) [Example 11, 5-(4-(((R)-4-(2-fluorophenyl)-2,3-dihydro-1H-inden-1-yl)oxy)phenyl)-3-hydroxyisothiazole 1-oxide], the concentration for a half-maximal effect (EC50) is below 0.3 µM.

As to `CCOCCOc1ccc(Oc2cccc3c2CC[C@H]3Oc2ccc(-c3cc(O)n[s+]3[O-])cc2)cn1` (stereo partly drawn) [Example 98, 5-(4-(((R)-4-((6-(2-ethoxyethoxy)pyridin-3-yl)oxy)-2,3-dihydro-1H-inden-1-yl)oxy)phenyl)-3-hydroxyisothiazole 1-oxide], the EC50 was below 0.3 µM.

As for `N#Cc1cccc(Oc2cccc3c2CC[C@H]3Oc2ccc(-c3cc(O)n[s+]3[O-])cc2)c1` (stereo partly drawn) [Example 86, 3-(((1R)-1-(4-(3-hydroxy-1-oxidoisothiazol-5-yl)phenoxy)-2,3-dihydro-1H-inden-4-yl)oxy)benzonitrile], the EC50 is below 0.3 µM.

Turning to `[O-][s+]1nc(O)cc1-c1ccc(O[C@@H]2CCc3c(-c4cc(F)ccc4F)cccc32)cc1` (stereo partly drawn) [Example 46, 5-(4-(((R)-4-(2,5-difluorophenyl)-2,3-dihydro-1H-inden-1-yl)oxy)phenyl)-3-hydroxyisothiazole 1-oxide], the EC50 is below 0.3 µM.

Turning to `[O-][s+]1nc(O)cc1-c1ccc(O[C@@H]2CCc3c(Oc4cnc5ccccc5c4)cccc32)cc1` (stereo partly drawn) [Example 104, 3-hydroxy-5-(4-(((R)-4-(quinolin-3-yloxy)-2,3-dihydro-1H-inden-1-yl)oxy)phenyl)isothiazole 1-oxide], the concentration giving a half-maximal response (EC50) is below 0.3 µM.

As for `[O-][s+]1nc(O)cc1-c1ccc(O[C@@H]2CCc3c(-c4ccc(OCc5ccccc5)c(F)c4)cccc32)cc1` (stereo partly drawn) [Example 57, 5-(4-(((R)-4-(4-benzyloxy-3-fluorophenyl)-2,3-dihydro-1H-inden-1-yl)oxy)phenyl)-3-hydroxyisothiazole 1-oxide], the EC50 was 0.3 to 3 µM.

Regarding `CC(C)Cc1ccc(-c2cccc3c2CC[C@H]3Oc2ccc(-c3cc(O)n[s+]3[O-])cc2)cc1` (stereo partly drawn) [Example 28, 5-(4-(((R)-4-(4-isobutylphenyl)-2,3-dihydro-1H-inden-1-yl)oxy)phenyl)-3-hydroxyisothiazole 1-oxide], the EC50 is below 0.3 µM.

`[O-][s+]1nc(O)cc1-c1ccc(O[C@@H]2CCc3c(-c4cccc(C(F)(F)F)c4)cccc32)cc1` (stereo partly drawn) [Example 63, 5-(4-(((R)-4-(3-trifluoromethylphenyl)-2,3-dihydro-1H-inden-1-yl)oxy)phenyl)-3-hydroxyisothiazole 1-oxide]: the EC50 is 0.3 to 3 µM.

On to `[O-][s+]1nc(O)cc1-c1cccc(OCCc2cccc(Oc3ccccc3)c2)c1` (stereo not drawn) [Example 163, 3-hydroxy-5-(3-(3-phenoxyphenethoxy)phenyl)isothiazole 1-oxide], for which the EC50 is 0.3 to 3 µM.

On to `CCOc1ccc(Cl)cc1-c1cccc2c1CC[C@H]2Oc1ccc(-c2cc(O)n[s+]2[O-])cc1` (stereo partly drawn) [Example 58, 5-(4-(((R)-4-(5-chloro-2-ethoxyphenyl)-2,3-dihydro-1H-inden-1-yl)oxy)phenyl)-3-hydroxyisothiazole 1-oxide], for which the EC50 was below 0.3 µM.

For `Cc1ccccc1-c1cccc2c1CC[C@H]2Oc1ccc(-c2cc(O)n[s+]2[O-])cc1` (stereo partly drawn) [Example 27, 5-(4-(((R)-4-(2-methylphenyl)-2,3-dihydro-1H-inden-1-yl)oxy)phenyl)-3-hydroxyisothiazole 1-oxide], the EC50 is below 0.3 µM.

As to `COc1ccc(-c2cccc3c2CC[C@H]3Oc2ccc(-c3cc(O)n[s+]3[O-])cc2)c(OC)c1` (stereo partly drawn) [Example 49, 5-(4-(((R)-4-(2,4-dimethoxyphenyl)-2,3-dihydro-1H-inden-1-yl)oxy)phenyl)-3-hydroxyisothiazole 1-oxide], the concentration giving a half-maximal response (EC50) is below 0.3 µM.

For `Cc1cccc(C)c1N1CCC(COc2ccc(-c3cc(O)n[s+]3[O-])cc2)C1` (stereo not drawn) [Example 121, 5-(4-((1-(2,6-dimethylphenyl)pyrrolidin-3-yl)methoxy)phenyl)-3-hydroxyisothiazole 1-oxide], the concentration giving a half-maximal response (EC50) is 0.3 to 3 µM.

With `CC(C)(C)c1ccc(-c2cccc3c2CC[C@H]3Oc2ccc(-c3cc(O)n[s+]3[O-])cc2)cc1` (stereo partly drawn) [Example 33, 5-(4-(((R)-4-(4-tert-butylphenyl)-2,3-dihydro-1H-inden-1-yl)oxy)phenyl)-3-hydroxyisothiazole 1-oxide], the EC50 lay within 0.3 to 3 µM.

With `[O-][s+]1nc(O)cc1-c1ccc(O[C@@H]2CCc3c(Oc4ccc(CCO)cc4)cccc32)cc1` (stereo partly drawn) [Example 88, 3-hydroxy-5-(4-(((R)-4-(4-(2-hydroxyethyl)phenoxy)-2,3-dihydro-1H-inden-1-yl)oxy)phenyl)isothiazole 1-oxide], the concentration for a half-maximal effect (EC50) was below 0.3 µM.

`[O-][s+]1nc(O)cc1-c1ccc(O[C@@H]2CCc3c(-c4cc(F)ccc4C(F)(F)F)cccc32)cc1` (stereo partly drawn) [Example 66, 5-(4-(((R)-4-(5-fluoro-2-trifluoromethylphenyl)-2,3-dihydro-1H-inden-1-yl)oxy)phenyl)-3-hydroxyisothiazole 1-oxide]: the concentration for a half-maximal effect (EC50) is below 0.3 µM.

For the compound `[O-][s+]1nc(O)cc1-c1ccc(O[C@@H]2CCc3c(Oc4ccc(N5CCOCC5)nc4)cccc32)cc1` (stereo partly drawn) [Example 109, 3-hydroxy-5-(4-(((R)-4-((6-morpholinopyridin-3-yl)oxy)-2,3-dihydro-1H-inden-1-yl)oxy)phenyl)isothiazole 1-oxide], the EC50 was below 0.3 µM.

As to `COc1ccc(Oc2cccc3c2OCC3Oc2ccc(-c3cc(O)n[s+]3[O-])cc2)cn1` (stereo not drawn) [Example 140, 3-hydroxy-5-(4-((7-((6-methoxypyridin-3-yl)oxy)-2,3-dihydrobenzofuran-3-yl)oxy)phenyl)isothiazole 1-oxide], the EC50 was below 0.3 µM.

Turning to `COc1ccc(Cl)cc1-c1cccc2c1CC[C@H]2Oc1ccc(-c2cc(O)n[s+]2[O-])cc1` (stereo partly drawn) [Example 55, 5-(4-(((R)-4-(5-chloro-2-methoxyphenyl)-2,3-dihydro-1H-inden-1-yl)oxy)phenyl)-3-hydroxyisothiazole 1-oxide], the 50% effective concentration (EC50) was 0.3 to 3 µM.

As for `CCc1ccccc1-c1cccc2c1CC[C@H]2Oc1ccc(-c2cc(O)n[s+]2[O-])cc1` (stereo partly drawn) [Example 9, 5-(4-(((R)-4-(2-ethylphenyl)-2,3-dihydro-1H-inden-1-yl)oxy)phenyl)-3-hydroxyisothiazole 1-oxide], the EC50 is below 0.3 µM.

`Cc1nc(OCCC(C)(C)O)ccc1Oc1cccc2c1OCC2Oc1ccc(-c2cc(O)n[s+]2[O-])cc1` (stereo not drawn) [Example 141, 3-hydroxy-5-(4-((7-((6-(3-hydroxy-3-methylbutoxy)-2-methylpyridin-3-yl)oxy)-2,3-dihydrobenzofuran-3-yl)oxy)phenyl)isothiazole 1-oxide]: the half-maximal effective concentration (EC50) is below 0.3 µM.

Regarding `[O-][s+]1nc(O)cc1-c1ccc(O[C@@H]2CCc3c(-c4cccnc4Cl)cccc32)cc1` (single isomer, unassigned) [Example 75], the EC50 is below 0.3 µM.

`Cc1nc(OCCCS(C)(=O)=O)ccc1Oc1cccc2c1CC[C@H]2Oc1ccc(-c2cc(O)n[s+]2[O-])cc1` (stereo partly drawn) [Example 117, 3-hydroxy-5-(4-(((R)-4-((2-methyl-6-(3-(methylsulfonyl)propoxy)pyridin-3-yl)oxy)-2,3-dihydro-1H-inden-1-yl)oxy)phenyl)isothiazole 1-oxide]: the concentration giving a half-maximal response (EC50) was below 0.3 µM.

Take `N#Cc1ccc(Oc2cccc3c2OCC3Oc2ccc(-c3cc(O)n[s+]3[O-])cc2)cc1` (single isomer, unassigned) [Example 144-b, 4-((3-(4-(3-hydroxy-1-oxidoisothiazol-5-yl)phenoxy)-2,3-dihydrobenzofuran-7-yl)oxy)benzonitrile]: the EC50 lay within 0.3 to 3 µM.

For `N#Cc1ccc(Oc2cccc3c2OCC3Oc2ccc(-c3cc(O)n[s+]3[O-])cc2)cc1` (single isomer, unassigned) [Example 144-a, 4-((3-(4-(3-hydroxy-1-oxidoisothiazol-5-yl)phenoxy)-2,3-dihydrobenzofuran-7-yl)oxy)benzonitrile], the EC50 was below 0.3 µM.

Consider `CCOCCOc1cc(C)c(Oc2cccc3c2CC[C@H]3Oc2ccc(-c3cc(O)n[s+]3[O-])cc2)c(C)c1` (stereo partly drawn) [Example 108, 5-(4-(((R)-4-(4-(2-ethoxyethoxy)-2,6-dimethylphenoxy)-2,3-dihydro-1H-inden-1-yl)oxy)phenyl)-3-hydroxyisothiazole 1-oxide], for which the EC50 is below 0.3 µM.

With `CC(=O)c1ccc(-c2cccc3c2CC[C@H]3Oc2ccc(-c3cc(O)n[s+]3[O-])cc2)s1` (stereo partly drawn) [Example 79, 1-(5-((1R)-1-(4-(3-hydroxy-1-oxidoisothiazol-5-yl)phenoxy)-2,3-dihydro-1H-inden-4-yl)thiophen-2-yl)ethanone], the concentration giving a half-maximal response (EC50) was below 0.3 µM.

`[O-][s+]1nc(O)cc1-c1ccc(O[C@@H]2CCc3c2cccc3N2CCCc3ccccc32)cc1` (stereo partly drawn) [Example 158, 5-(4-(((R)-4-(3,4-dihydroquinoline-1(2H)-yl)-2,3-dihydro-1H-inden-1-yl)oxy)phenyl)-3-hydroxyisothiazole 1-oxide]: the EC50 is below 0.3 µM.

With `[O-][s+]1nc(O)cc1-c1ccc(O[C@@H]2CCc3c(-c4cccc(F)c4)cccc32)cc1` (stereo partly drawn) [Example 29, 5-(4-(((R)-4-(3-fluorophenyl)-2,3-dihydro-1H-inden-1-yl)oxy)phenyl)-3-hydroxyisothiazole 1-oxide], the EC50 was below 0.3 µM.

On to `[O-][s+]1nc(O)cc1-c1ccc(O[C@@H]2CCc3c(-c4ccc(Cl)cc4)cccc32)cc1` (stereo partly drawn) [Example 6, 5-(4-(((R)-4-(4-chlorophenyl)-2,3-dihydro-1H-inden-1-yl)oxy)phenyl)-3-hydroxyisothiazole 1-oxide], for which the 50% effective concentration (EC50) is 0.3 to 3 µM.
